The test deals with Hepatocyte spheroids. Description: Cell viability is assessed by cellular ATP assay using CellTiter-Glo Luminescent kit. Viability is expressed as average RLU from biological replicates and normalized to negative control.Toxicity is defined as those with normalized ATP significantly less than 80 percent of the negative control. The class given is functional, Homo sapiens. On the set-up: unit not given here. (Cellular ATP, detected with luciferase, serves as a proxy for viable cell number.)

Molecule `O=S(=O)(NC1CCC(c2cc(F)ccc2F)(S(=O)(=O)c2ccc(Cl)cc2)CC1)C(F)(F)F` (configuration not stated) [MRK-560] had a Proliferation of 0.1212.
Regarding `Cc1cc(Nc2nccc(C)n2)cc(-c2cnc([C@@]3(O)CC[C@H](C(=O)O)C(C)(C)C3)s2)c1` [MRL-SYKi], the Proliferation was 0.
Molecule `CC(=O)Nc1c(C(C)=O)c(=O)n(C)c2nc(-c3ccc(Cl)cc3Cl)c(-c3ccc(Cl)cc3)cc12` [NAPHTHYRIDINONE] gave a Proliferation of 0.005874.
Consider `Cn1c(=O)c(Oc2ccc(F)cc2F)cc2cnc(NC(CCO)CCO)nc21` [PAMAPIMOD], for which the Proliferation worked out at 0.003154.
In the case of `Cn1cnc2c(F)c(Nc3ccc(Br)cc3Cl)c(C(=O)NOCCO)cc21` [SELUMETINIB], the Proliferation was determined as 0.04298.
As to `Cn1cc(-c2ccc3nnc(Sc4ccc5ncccc5c4)n3n2)cn1` [SGX-523], the Proliferation came out at 0.3569.
The molecule `O=C1c2ccc(Nc3ccc(F)cc3F)cc2CCc2ccc(OC[C@H](O)CO)cc21` [Skepinone-L] came in with a Proliferation of 0.2651.
In turn, `COc1cccc(CNC(=O)c2nc3scc(COCc4ccc(C(=O)O)cc4)c3c(=O)[nH]2)c1` [T-26c] had a Proliferation of 0.5771.
In turn, `Nc1nc2[nH]cnc2c(=S)[nH]1` [THIOGUANINE] came in with a Proliferation of 0.05104.
Under `C[C@@H]1CCN(C(=O)CC#N)C[C@@H]1N(C)c1ncnc2[nH]ccc12.O=C(O)CC(O)(CC(=O)O)C(=O)O` [TOFACITINIB CITRATE] stands 0.01527.
In turn, `CC(=O)Nc1cccc(-n2c(=O)n(C3CC3)c(=O)c3c(Nc4ccc(I)cc4F)n(C)c(=O)c(C)c32)c1` [TRAMETINIB] displayed a Proliferation of 0.
Under `NC(=O)c1ccc(N(C(N)=O)c2c(F)cccc2F)nc1-c1ccc(F)cc1F` [VX-702] stands 0.02591.

Values taken from ChEMBL document CHEMBL5724564, “Patient-derived NASH model to assess the effects of chemical probes on hepatocyte regenerations” (2024).
